Experimental data as given in PubChem BioAssay AID1963978 (Molecular Pharmacology Branch, DTP, NCI, 2024).

Tested on: 616215-338-R-J1-PDC spheroids with HUVEC/MSC, viability
Assay: Anticancer human tumor 616215-338-R-J1-PDC patient-derived colon adenocarcinoma cell line growth inhibition [PI3K]
Conditions: for IC50: curve of first compound; for viability, T/C: stronger effect = lower value
Outline: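 Complex 3D spheroids (cancer cells + endothelial HUVEC + mesenchymal stem cells); drug pairs of targeted agent x inavolisib/alpelisib/duvelisib/copanlisib; half-log series from ~Cmax, max 10 microM if Cmax unknown; endpoint viability.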

[1] = second compound 0.0316 µM, first compound 0.0316 µM
[2] = second compound 0.0316 µM, first compound 0.1 µM
[3] = second compound 0.1 µM, first compound 0.0316 µM
[4] = second compound 0.1 µM, first compound 0.1 µM
[5] = second compound 0.316 µM, first compound 0.0316 µM
[6] = second compound 0.316 µM, first compound 0.1 µM
[7] = second compound 1 µM, first compound 0.0316 µM
[8] = second compound 1 µM, first compound 0.1 µM
[9] = second compound 3.16 µM, first compound 0.0316 µM
[10] = second compound 3.16 µM, first compound 0.1 µM
[11] = second compound 10 µM, first compound 0.0316 µM
[12] = second compound 10 µM, first compound 0.1 µM
[13] = second compound 0.0316 µM, first compound 0.316 µM
[14] = second compound 0.0316 µM, first compound 1 µM
[15] = second compound 0.0316 µM, first compound 3.16 µM
[16] = second compound 0.0316 µM, first compound 10 µM
[17] = second compound 0.1 µM, first compound 0.316 µM
[18] = second compound 0.1 µM, first compound 1 µM
[19] = second compound 0.1 µM, first compound 3.16 µM
[20] = second compound 0.1 µM, first compound 10 µM
[21] = second compound 0.316 µM, first compound 0.316 µM
[22] = second compound 0.316 µM, first compound 1 µM
[23] = second compound 0.316 µM, first compound 3.16 µM
[24] = second compound 0.316 µM, first compound 10 µM
[25] = second compound 1 µM, first compound 0.316 µM
[26] = second compound 1 µM, first compound 1 µM
[27] = second compound 1 µM, first compound 3.16 µM
[28] = second compound 1 µM, first compound 10 µM
[29] = second compound 0.00316 µM, first compound 0.0316 µM
[30] = second compound 0.00316 µM, first compound 0.1 µM
[31] = second compound 0.00316 µM, first compound 0.316 µM
[32] = second compound 0.00316 µM, first compound 1 µM
[33] = second compound 0.00316 µM, first compound 3.16 µM
[34] = second compound 0.00316 µM, first compound 10 µM
[35] = second compound 0.01 µM, first compound 0.0316 µM
[36] = second compound 0.01 µM, first compound 0.1 µM
[37] = second compound 0.01 µM, first compound 0.316 µM
[38] = second compound 0.01 µM, first compound 1 µM
[39] = second compound 0.01 µM, first compound 3.16 µM
[40] = second compound 0.01 µM, first compound 10 µM
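Note: spheroids exposed to agents for seven days before the viability read.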

CC(=O)c1c(C)c2cnc(Nc3ccc(N4CCNCC4)cn3)nc2n(C2CCCC2)c1=O + Cc1nc(NC(=O)N2CCCC2C(N)=O)sc1-c1ccnc(C(C)(C)C(F)(F)F)c1
IC50 (second compound 0.0316 µM): > 0.1 µM | IC50 (second compound 0.1 µM): > 0.1 µM | IC50 (second compound 0.316 µM): > 0.1 µM | IC50 (second compound 1 µM): > 0.1 µM | IC50 (second compound 3.16 µM): > 0.1 µM | IC50 (second compound 10 µM): > 0.1 µM | viability, T/C (second compound 0.0316 µM, first compound 0.000316 µM): 97.4% | viability, T/C (second compound 0.0316 µM, first compound 0.001 µM): 96.8% | viability, T/C (second compound 0.0316 µM, first compound 0.00316 µM): 102% | viability, T/C (second compound 0.0316 µM, first compound 0.01 µM): 110% | viability, T/C [1]: 98% | viability, T/C [2]: 113% | viability, T/C (second compound 0.1 µM, first compound 0.000316 µM): 102% | viability, T/C (second compound 0.1 µM, first compound 0.001 µM): 95.7% | viability, T/C (second compound 0.1 µM, first compound 0.00316 µM): 105% | viability, T/C (second compound 0.1 µM, first compound 0.01 µM): 87.9% | viability, T/C [3]: 104% | viability, T/C [4]: 111% | viability, T/C (second compound 0.316 µM, first compound 0.000316 µM): 109% | viability, T/C (second compound 0.316 µM, first compound 0.001 µM): 97.3% | viability, T/C (second compound 0.316 µM, first compound 0.00316 µM): 88.1% | viability, T/C (second compound 0.316 µM, first compound 0.01 µM): 99.9% | viability, T/C [5]: 104% | viability, T/C [6]: 108% | viability, T/C (second compound 1 µM, first compound 0.000316 µM): 111% | viability, T/C (second compound 1 µM, first compound 0.001 µM): 108% | viability, T/C (second compound 1 µM, first compound 0.00316 µM): 97.2% | viability, T/C (second compound 1 µM, first compound 0.01 µM): 100% | viability, T/C [7]: 103% | viability, T/C [8]: 91.7% | viability, T/C (second compound 3.16 µM, first compound 0.000316 µM): 91.8% | viability, T/C (second compound 3.16 µM, first compound 0.001 µM): 95.6% | viability, T/C (second compound 3.16 µM, first compound 0.00316 µM): 90.5% | viability, T/C (second compound 3.16 µM, first compound 0.01 µM): 98.4% | viability, T/C [9]: 105% | viability, T/C [10]: 101% | viability, T/C (second compound 10 µM, first compound 0.000316 µM): 97.5% | viability, T/C (second compound 10 µM, first compound 0.001 µM): 93% | viability, T/C (second compound 10 µM, first compound 0.00316 µM): 90.5% | viability, T/C (second compound 10 µM, first compound 0.01 µM): 93% | viability, T/C [11]: 91% | viability, T/C [12]: 97%

CC(Cn1ccc(-c2ccc(C#N)c(Cl)c2)n1)NC(=O)c1cc(C(C)O)[nH]n1 (stereo not drawn) + CC(Nc1ncnc2nc[nH]c12)c1cc2cccc(Cl)c2c(=O)n1-c1ccccc1
IC50 (second compound 0.0316 µM): > 10 µM | IC50 (second compound 0.1 µM): > 10 µM | IC50 (second compound 0.316 µM): > 10 µM | IC50 (second compound 1 µM): > 10 µM | IC50 (second compound 3.16 µM): > 10 µM | IC50 (second compound 10 µM): > 10 µM | viability, T/C [1]: 92% | viability, T/C [2]: 99.5% | viability, T/C [13]: 103% | viability, T/C [14]: 96.1% | viability, T/C [15]: 116% | viability, T/C [16]: 99.5% | viability, T/C [3]: 93.7% | viability, T/C [4]: 94.6% | viability, T/C [17]: 102% | viability, T/C [18]: 92.9% | viability, T/C [19]: 95.5% | viability, T/C [20]: 104% | viability, T/C [5]: 93.1% | viability, T/C [6]: 102% | viability, T/C [21]: 89.1% | viability, T/C [22]: 101% | viability, T/C [23]: 102% | viability, T/C [24]: 93.4% | viability, T/C [7]: 96% | viability, T/C [8]: 88.3% | viability, T/C [25]: 110% | viability, T/C [26]: 93.7% | viability, T/C [27]: 110% | viability, T/C [28]: 95.9% | viability, T/C [9]: 109% | viability, T/C [10]: 97.1% | viability, T/C (second compound 3.16 µM, first compound 0.316 µM): 107% | viability, T/C (second compound 3.16 µM, first compound 1 µM): 104% | viability, T/C (second compound 3.16 µM, first compound 3.16 µM): 94.8% | viability, T/C (second compound 3.16 µM, first compound 10 µM): 92.8% | viability, T/C [11]: 99.4% | viability, T/C [12]: 106% | viability, T/C (second compound 10 µM, first compound 0.316 µM): 101% | viability, T/C (second compound 10 µM, first compound 1 µM): 97% | viability, T/C (second compound 10 µM, first compound 3.16 µM): 118% | viability, T/C (second compound 10 µM, first compound 10 µM): 95.5%

C[C@@H](NC(=O)c1ncnc(N)c1Cl)c1ncc(C(=O)Nc2cc(C(F)(F)F)c(Cl)cn2)s1 + COc1c(OCCCN2CCOCC2)ccc2c3n(c(=NC(=O)c4cnc(N)nc4)nc12)CCN3
IC50 (second compound 0.00316 µM): > 10 µM | IC50 (second compound 0.01 µM): > 10 µM | IC50 (second compound 0.0316 µM): > 10 µM | IC50 (second compound 0.1 µM): 6.86 µM | IC50 (second compound 0.316 µM): 0.072 µM | IC50 (second compound 1 µM): < 0.0316 µM | viability, T/C [29]: 94.6% | viability, T/C [30]: 117% | viability, T/C [31]: 117% | viability, T/C [32]: 109% | viability, T/C [33]: 104% | viability, T/C [34]: 80.2% | viability, T/C [35]: 96.3% | viability, T/C [36]: 102% | viability, T/C [37]: 116% | viability, T/C [38]: 115% | viability, T/C [39]: 112% | viability, T/C [40]: 89.3% | viability, T/C [1]: 97.9% | viability, T/C [2]: 106% | viability, T/C [13]: 106% | viability, T/C [14]: 113% | viability, T/C [15]: 91.2% | viability, T/C [16]: 53.3% | viability, T/C [3]: 114% | viability, T/C [4]: 103% | viability, T/C [17]: 97.6% | viability, T/C [18]: 97.2% | viability, T/C [19]: 74.7% | viability, T/C [20]: 37.7% | viability, T/C [5]: 54% | viability, T/C [6]: 48.4% | viability, T/C [21]: 40.2% | viability, T/C [22]: 32.2% | viability, T/C [23]: 28.4% | viability, T/C [24]: 8.73% | viability, T/C [7]: 24.4% | viability, T/C [8]: 19.7% | viability, T/C [25]: 16.2% | viability, T/C [26]: 11.3% | viability, T/C [27]: 6.09% | viability, T/C [28]: 1.64%

CC(C)NCC(C(=O)N1CCN(c2ncnc3c2C(C)CC3O)CC1)c1ccc(Cl)cc1 (stereo not drawn) + COc1c(OCCCN2CCOCC2)ccc2c3n(c(=NC(=O)c4cnc(N)nc4)nc12)CCN3
IC50 (second compound 0.00316 µM): 4.67 µM | IC50 (second compound 0.01 µM): 4 µM | IC50 (second compound 0.0316 µM): 2.56 µM | IC50 (second compound 0.1 µM): 1.64 µM | IC50 (second compound 0.316 µM): < 0.0316 µM | IC50 (second compound 1 µM): < 0.0316 µM | viability, T/C [29]: 87.4% | viability, T/C [30]: 92.8% | viability, T/C [31]: 92.9% | viability, T/C [32]: 97% | viability, T/C [33]: 64.3% | viability, T/C [34]: 22.1% | viability, T/C [35]: 93.1% | viability, T/C [36]: 99.6% | viability, T/C [37]: 100% | viability, T/C [38]: 103% | viability, T/C [39]: 57.2% | viability, T/C [40]: 21.4% | viability, T/C [1]: 96.8% | viability, T/C [2]: 102% | viability, T/C [13]: 93.6% | viability, T/C [14]: 94.4% | viability, T/C [15]: 40.1% | viability, T/C [16]: 23.7% | viability, T/C [3]: 98.8% | viability, T/C [4]: 84.4% | viability, T/C [17]: 80.3% | viability, T/C [18]: 55.7% | viability, T/C [19]: 39.6% | viability, T/C [20]: 18.5% | viability, T/C [5]: 38.3% | viability, T/C [6]: 37.1% | viability, T/C [21]: 33.3% | viability, T/C [22]: 30.3% | viability, T/C [23]: 28.2% | viability, T/C [24]: 17% | viability, T/C [7]: 24.8% | viability, T/C [8]: 21.8% | viability, T/C [25]: 22.1% | viability, T/C [26]: 20.9% | viability, T/C [27]: 20.7% | viability, T/C [28]: 14.1%
